According to US6596307B1, “Process for preparing pharmaceutical bulk material having uniform dissolution” (Eli Lilly and Company, priority 2001, dated 2003):
Values joined by “and” are separate entries in the source; they are usually repeats but may differ in a detail not shown here. Identical values can stand only once. Blank lines part the entries; values can stand above or below the compound they belong to.

Tests used:
Format in all cases: physicochemical
[1] = Model Dissolution Test (capsule filled with drug substance only); conditions: no related substances added; failed the test
Experimental: Approximately 523 mg of bulk cefaclor is filled into an empty 500 mg cefaclor capsule (KG3062). The USP monograph dissolution test is then performed with filtered samples being withdrawn at 15, 30, and 45 minutes. The test conditions are USP Apparatus 2 at 50 rpm using 900 ml of purified water maintained at 37° C. Visual examination is done at the time of sample collection. Visual observations range from “the material is completely dissolved and/or dispersed within 5 minutes with no visible residue or agglomerates to a large intact mass remains at the end of 45 minutes that is hard to the touch.” An ultraviolet (UV) assay is conducted on the filtered aliquots to determine the percent dissolution.

[2] = Near Infrared Dihydrate Conversion Test (NIR onset time); conditions: for NIR Onset Time: cefaclor dihydrate dried in fluidized bed to different water contents (Table 2)
Description: “NIR onset time” refers to the time between addition of water to a cefaclor sample and the observation of an absorption peak at about 5798 cm^−1 (1725 nm) as measured by Near-Infrared Reflectance Spectroscopy (NIRS). Depending upon the particular instrument used, the exact peak measurement may vary within the standard deviation established for that particular instrument.
The NIRS conversion test measures the time in minutes before the onset of the crystal form reversion for a sample of cefaclor bulk. […] To ensure that a lot will have an acceptable dissolution rate, one generally strives for a NIR onset time of >7 minutes, preferably >9 minutes and more preferably >10 minutes.
Approximately 1 to 2 grams of sample was spread in a thin layer on the bottom of an open aluminum weighing pan and placed in a constant humidity chamber, containing a saturated aqueous solution of K2HPO4, for at least two hours prior to analysis. Following equilibration in the humidity chamber, the sample was packed into a 2 mm×6 mm, stainless steel sample cup until full (approximately 35 mg), and 6 μL of water placed in the center of the sample. NIR data were collected using the NIR Systems model 5000 equipped with a fiber optic diffuse-reflectance probe, positioned over the sample cup. Immediately following addition of the water, NIR spectra were recorded from 1100 to 2500 nm approximately each 30 seconds. The time elapsed prior to the first appearance of the dihydrate peak at 1725 nm (5798 cm^−1) was reported as the NIR onset time.

[3] = USP 23 Standard Dissolution Test for Cefaclor Capsules; set-up: Capsule dissolution rate, 1st stage (Avg. n = 6) / Capsule dissolution rate, 1st stage, individual unit / Capsule dissolution rate, 2nd stage, individual unit: unit: %; conditions: water 37° C., 30 minutes, then rehydrated; for Capsule dissolution rate, 1st stage, individual unit: % dissolved
Experimental: Dissolution (711): The test conditions are USP Apparatus 2 at 50 rpm using 900 ml of purified water maintained at 37° C. for 30 minutes. Determine the amount of Cefaclor monohydrate dissolved from ultraviolet absorbances at the wavelength of maximum absorbances at about 264 nm of filtered portions of the solution under test, suitably diluted with water, in comparison with a Standard solution having a know concentration of USP Cefaclor RS in the same medium.
Dissolution testing is continued with additional units through three stages unless the results conform at either the 1st or 2nd stage according to the following acceptance
The quantity, Q, is the % of dissolved active ingredient in the specification. For Cefaclor, at Stage 1, each individual unit must be at least 85% dissolved in 30 minutes to pass the testing. If any of the 6 units tested is less than 85% dissolved, the product fails level S1 and you must go to S2. At Stage 2, the mean of the twelve units tested (first 6 from S1 and 6 from S2) must be at least 80% dissolved and no unit may be less than 65% dissolved. If these criteria are not met, the product fails the level S2 specification and you must go to S3. At Stage 3, the mean of the 24 units tested (6 from S1+6 from S2+12 from S3) must be at least 80% dissolved, no more than 2 units may be less than 65% dissolved, and none of the units may be less than 55% dissolved.

[4] = Solubility in water of crystal forms
[5] = X-ray diffraction conversion rate test (monohydrate to dihydrate after addition of water); conditions: added at 0.5% by weight to poorly dissolving lot, mixed dry; 1 ml water to 0.80 g sample
Experimental: Through X-ray diffraction studies of readily dissolving and incompletely dissolving lots of cefaclor, it was determined that all lots are initially in the same crystallographic state (monohydrate). Upon addition of water to readily dissolving lots, there is no change in the X-ray powder diffraction pattern over a five minute period. In contrast, when water is added to incompletely dissolving lot of cefaclor, substantial amounts of the dihydrate form are detected in less than five minutes. In an older lot of cefaclor, no dihydrate was detected for as long as two days, at which time the study was discontinued.
The Δ^2-isomer was added to a poorly dissolving lot of cefaclor at 0.5% concentration by weight. The sample was mixed in the dry state. After addition of 1 ml of water to a 0.80 g sample, the X-ray diffraction pattern was collected at different time intervals.
Kinetic studies were carried out using fraction 6 to gain a better understanding of how much would be required to achieve acceptable results in the model dissolution test.

[6] = bulk dried to 3.0 to 6.5% water (control method)
[7] = lots dried with full desiccation dried air
[8] = lots dried with 40 grains dried air

NIR Onset Time [2]: 3 min
SMILES: N[C@@H](C(=O)N[C@@H]1C(=O)N2C(C(=O)O)=C(Cl)CS[C@H]12)c1ccccc1.O [Sample 1-1]

NIR Onset Time [2]: 11 min
SMILES: N[C@@H](C(=O)N[C@@H]1C(=O)N2C(C(=O)O)=C(Cl)CS[C@H]12)c1ccccc1.O [Sample 1-2]

NIR Onset Time [2]: 2.5 min
SMILES: N[C@@H](C(=O)N[C@@H]1C(=O)N2C(C(=O)O)=C(Cl)CS[C@H]12)c1ccccc1.O [Sample 1-3]

Continued, compound first:

SMILES: N[C@@H](C(=O)N[C@@H]1C(=O)N2C(C(=O)O)=C(Cl)CS[C@H]12)c1ccccc1
dissolved in thirty minutes [1]: 78%

SMILES: N[C@@H](C(=O)NC1C(=O)N2C(C(=O)O)=C(Cl)CS[C@H]12)c1ccccc1 (some centres unmarked) [Cefaclor Monohydrate (Control), reference compound]
NIR onset time, upper control limit [2, 6]: approximately 2.5 minutes
average NIR onset time [2, 6]: 1.2 min

SMILES: N[C@@H](C(=O)N[C@@H]1C(=O)N2C(C(=O)O)=C(Cl)CS[C@H]12)c1ccccc1 [Sample 2-1a]
Capsule dissolution rate, 1st stage, individual unit [3, 7]: 102% (2×) and 100% and 94% and 101% (2×)
Capsule dissolution rate, 1st stage (Avg. n = 6) [3, 7]: 100

SMILES: N[C@@H](C(=O)N[C@@H]1C(=O)N2C(C(=O)O)=C(Cl)CS[C@H]12)c1ccccc1 [Sample 2-1b]
Capsule dissolution rate, 1st stage, individual unit [3, 7]: 91 and 85 and 88 and 96 and 95 and 92
Capsule dissolution rate, 1st stage (Avg. n = 6) [3, 7]: 90

SMILES: N[C@@H](C(=O)N[C@@H]1C(=O)N2C(C(=O)O)=C(Cl)CS[C@H]12)c1ccccc1 [Sample 2-1c]
Capsule dissolution rate, 1st stage, individual unit [3, 7]: 90 and 95 and 97 and 89 and 96 (2×)
Capsule dissolution rate, 1st stage (Avg. n = 6) [3, 7]: 94

SMILES: N[C@@H](C(=O)N[C@@H]1C(=O)N2C(C(=O)O)=C(Cl)CS[C@H]12)c1ccccc1 [Sample 2-2a]
Capsule dissolution rate, 1st stage, individual unit [3, 8]: 97 and 92 and 95 and 81 and 98 and 101
Capsule dissolution rate, 1st + 2nd stage (Avg. n = 12) [3, 8]: 96
Capsule dissolution rate, 1st stage (Avg. n = 6) [3, 8]: 94
Capsule dissolution rate, 2nd stage (Avg. n = 6) [3, 8]: 98
Capsule dissolution rate, 2nd stage, individual unit [3, 8]: 98 and 95 and 99 and 100 and 97 and 96

SMILES: N[C@@H](C(=O)N[C@@H]1C(=O)N2C(C(=O)O)=C(Cl)CS[C@H]12)c1ccccc1 [amorphous cefaclor, reference compound]
effect of addition to a cefaclor bulk sample on dihydrate reversion time ([2]; indicator tests): decrease the reversion onset time

SMILES: N[C@@H](C(=O)N[C@@H]1C(=O)N2C(C(=O)O)=C(Cl)CS[C@H]12)c1ccccc1 [cefaclor dihydrate]
solubility in water relative to the monohydrate form [4]: less readily soluble

SMILES: N[C@@H](C(=O)NC1C(=O)N2C(C(=O)O)C(Cl)=CS[C@H]12)c1ccccc1 (stereo partly drawn) [Δ^2-isomer]
inhibitory effect on conversion to dihydrate [5]: minor inhibitory effect
